Experimental data from patent US9562057B2, “(Thieno[2,3-b][1,5]benzoxazepin-4-yl)piperazin-1-yl compounds as dual activity H1 inverse agonists/5-HT2A antagonists” (Eli Lilly and Company, priority 2013, dated 2017).
Structures can show the parent of a compound that is named as a salt.

What was measured:
5-HT6 = 5-HT6 (Homo sapiens, UniProt P50406); test: 5-HT6 binding
Description: (§1) Further, the compounds of the invention may be tested in binding assays and functional activity assays by well known methods for other physiologically important receptors such as, but not limited to, the hERG channel, other serotonin receptors (specifically 5-HT1B and 5-HT1D receptors, lack of agonist activity at 5-HT2B receptors, 5-HT2C, 5-HT5, 5-HT6, and 5-HT7 receptors), dopaminergic receptors (specifically D1, D2, and D3), GABAA receptors, adrenergic receptors and monoamine transporters.

Adrenergic alpha2B = Adrenergic alpha2B (Homo sapiens, UniProt P18089); test: Adrenergic alpha2B binding
Description: as §1

Dopamine D3 = Dopamine D3 (Homo sapiens, UniProt P35462); test: Dopamine D3 binding
Description: as §1

hERG Channel = hERG Channel (Homo sapiens, UniProt Q12809); test: hERG channel inhibition; details: inhibition at 10 μM
Description: as §1

[1] = biological target: T1, recombinant 5-HT2A receptor (human) (Homo sapiens, UniProt P28223); test: 5-HT2A competition binding assay ([3H]-Ketanserin, SPA)
T1 construct: expressed in transfected cells; host or cells: AV-12
Method: [^3H]-Ketanserin binding experiments are carried out in SPA 96-well format. Membranes used in this assay are prepared from AV-12 cells stably expressing recombinant 5-HT2A receptor (human). The incubation is initiated by the addition of a mixture of WGA YSi SPA beads (1 mg/well, Perkin Elmer (MA, USA), RPNQ0011) and 2 μg membranes to assay buffer (67 mM Tris, 0.5 mM EDTA; pH 7.6) containing 3.1 nM [^3H]-Ketanserin and varying concentrations of the test compound (10 point concentration response curves). Non-specific binding is determined in the presence of 20 μM 1-(1-naphthyl) piperazine. Samples are incubated for 4 hr. at room temperature (22° C.) and then read in a Microbeta® Trilux.
Binding data analysis Curves are evaluated using a 4-parameter logistic nonlinear equation to obtain the concentration of competitor causing 50% inhibition of radioligand binding (IC50). Equilibrium dissociation constants (Ki) are calculated according to the equation Ki=IC50/(1+L/Kd), where L equals the concentration of radioligand used in the experiment and Kd equals the equilibrium dissociation constant of the radioligand for the receptor, determined from standard saturation analysis or homologous competition experiments. Reported values for Ki, where n values are indicated, are shown as geometric mean±the standard error of the mean (SEM), with the number of replicate determinations indicated by n. […]

Dopamine D2 = Dopamine D2 (Homo sapiens, UniProt P14416); test: Dopamine D2 binding
Description: as §1

Adrenergic alpha2A = Adrenergic alpha2A (Homo sapiens, UniProt P08913); test: Adrenergic alpha2A binding
Description: as §1

hERG Channel, sequence (Q12809 whole entry): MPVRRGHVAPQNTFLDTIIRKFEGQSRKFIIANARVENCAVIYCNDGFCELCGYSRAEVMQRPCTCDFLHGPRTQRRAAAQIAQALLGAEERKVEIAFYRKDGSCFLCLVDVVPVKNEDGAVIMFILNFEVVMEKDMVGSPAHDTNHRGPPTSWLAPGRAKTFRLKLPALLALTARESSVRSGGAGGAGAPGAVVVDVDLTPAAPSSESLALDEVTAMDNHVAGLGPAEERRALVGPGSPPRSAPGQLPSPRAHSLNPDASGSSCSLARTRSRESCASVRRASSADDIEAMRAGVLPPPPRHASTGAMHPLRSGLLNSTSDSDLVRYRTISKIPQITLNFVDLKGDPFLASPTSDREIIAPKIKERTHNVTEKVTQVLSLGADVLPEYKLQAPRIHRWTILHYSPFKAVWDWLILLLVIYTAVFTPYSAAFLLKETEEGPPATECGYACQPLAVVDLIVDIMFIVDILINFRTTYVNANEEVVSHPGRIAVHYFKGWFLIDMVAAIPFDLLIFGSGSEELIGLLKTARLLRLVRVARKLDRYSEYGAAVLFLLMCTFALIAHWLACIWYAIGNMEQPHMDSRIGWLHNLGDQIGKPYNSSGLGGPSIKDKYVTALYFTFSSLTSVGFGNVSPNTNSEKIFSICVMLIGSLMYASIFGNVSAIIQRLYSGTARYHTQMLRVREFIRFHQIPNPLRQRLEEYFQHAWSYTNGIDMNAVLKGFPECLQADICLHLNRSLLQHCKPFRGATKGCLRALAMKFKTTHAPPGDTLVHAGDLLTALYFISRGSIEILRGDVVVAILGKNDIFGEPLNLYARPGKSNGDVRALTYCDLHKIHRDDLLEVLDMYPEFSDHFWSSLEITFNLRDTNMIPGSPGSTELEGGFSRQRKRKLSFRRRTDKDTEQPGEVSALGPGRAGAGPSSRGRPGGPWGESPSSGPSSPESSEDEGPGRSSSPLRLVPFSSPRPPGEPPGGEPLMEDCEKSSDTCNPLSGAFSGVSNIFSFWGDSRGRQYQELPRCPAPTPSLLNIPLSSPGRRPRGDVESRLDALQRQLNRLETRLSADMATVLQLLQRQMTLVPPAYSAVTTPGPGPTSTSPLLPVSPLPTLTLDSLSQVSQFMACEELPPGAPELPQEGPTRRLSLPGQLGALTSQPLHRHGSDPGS
Dopamine D2, sequence (P14416 whole entry): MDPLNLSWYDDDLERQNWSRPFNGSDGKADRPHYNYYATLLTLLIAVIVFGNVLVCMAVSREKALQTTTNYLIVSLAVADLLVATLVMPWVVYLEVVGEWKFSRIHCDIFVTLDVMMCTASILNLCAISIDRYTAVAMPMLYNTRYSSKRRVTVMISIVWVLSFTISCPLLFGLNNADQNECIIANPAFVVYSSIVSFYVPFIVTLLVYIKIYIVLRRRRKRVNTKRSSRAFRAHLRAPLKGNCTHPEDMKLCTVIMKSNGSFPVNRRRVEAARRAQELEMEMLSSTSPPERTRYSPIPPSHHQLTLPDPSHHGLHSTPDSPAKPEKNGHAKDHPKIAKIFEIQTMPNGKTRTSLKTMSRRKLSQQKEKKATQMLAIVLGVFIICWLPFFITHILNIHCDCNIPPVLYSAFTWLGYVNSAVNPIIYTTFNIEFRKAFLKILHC
Adrenergic alpha2B, sequence (P18089 whole entry): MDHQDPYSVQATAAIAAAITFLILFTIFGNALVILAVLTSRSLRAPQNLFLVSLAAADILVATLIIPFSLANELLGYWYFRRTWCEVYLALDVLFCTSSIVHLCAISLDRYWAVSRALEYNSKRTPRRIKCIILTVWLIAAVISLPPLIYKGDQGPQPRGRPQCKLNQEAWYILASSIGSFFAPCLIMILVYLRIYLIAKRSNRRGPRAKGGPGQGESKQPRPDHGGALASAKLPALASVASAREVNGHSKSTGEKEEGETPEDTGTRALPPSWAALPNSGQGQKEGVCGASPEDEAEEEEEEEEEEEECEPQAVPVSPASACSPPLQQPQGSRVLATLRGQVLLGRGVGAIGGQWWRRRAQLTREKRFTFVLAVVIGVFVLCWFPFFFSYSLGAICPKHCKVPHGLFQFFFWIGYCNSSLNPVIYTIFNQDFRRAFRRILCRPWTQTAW
T1 sequence (P28223 whole entry): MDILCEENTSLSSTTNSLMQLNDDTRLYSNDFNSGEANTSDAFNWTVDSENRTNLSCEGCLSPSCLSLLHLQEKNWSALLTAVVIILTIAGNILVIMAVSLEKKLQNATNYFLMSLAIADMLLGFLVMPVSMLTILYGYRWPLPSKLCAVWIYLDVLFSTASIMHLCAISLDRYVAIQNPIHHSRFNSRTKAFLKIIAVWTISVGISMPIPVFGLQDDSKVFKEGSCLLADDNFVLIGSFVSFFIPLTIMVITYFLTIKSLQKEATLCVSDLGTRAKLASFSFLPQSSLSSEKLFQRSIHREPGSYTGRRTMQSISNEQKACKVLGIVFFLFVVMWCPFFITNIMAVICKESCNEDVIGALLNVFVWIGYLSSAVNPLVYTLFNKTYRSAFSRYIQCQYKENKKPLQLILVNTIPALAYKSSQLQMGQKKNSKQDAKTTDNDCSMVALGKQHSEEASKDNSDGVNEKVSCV
Dopamine D3, sequence (P35462 whole entry): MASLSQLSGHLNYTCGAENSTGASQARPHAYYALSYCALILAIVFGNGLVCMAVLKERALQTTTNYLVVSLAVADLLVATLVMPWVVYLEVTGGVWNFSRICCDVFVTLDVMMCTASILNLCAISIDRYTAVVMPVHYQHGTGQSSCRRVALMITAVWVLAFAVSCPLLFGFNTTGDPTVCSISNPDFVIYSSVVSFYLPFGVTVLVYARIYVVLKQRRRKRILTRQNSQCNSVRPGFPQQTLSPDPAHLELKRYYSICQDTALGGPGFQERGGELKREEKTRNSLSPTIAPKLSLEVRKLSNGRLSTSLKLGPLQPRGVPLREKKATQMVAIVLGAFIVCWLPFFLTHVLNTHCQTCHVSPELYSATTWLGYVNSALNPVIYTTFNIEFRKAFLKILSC
5-HT6, sequence (P50406 whole entry, species assumed): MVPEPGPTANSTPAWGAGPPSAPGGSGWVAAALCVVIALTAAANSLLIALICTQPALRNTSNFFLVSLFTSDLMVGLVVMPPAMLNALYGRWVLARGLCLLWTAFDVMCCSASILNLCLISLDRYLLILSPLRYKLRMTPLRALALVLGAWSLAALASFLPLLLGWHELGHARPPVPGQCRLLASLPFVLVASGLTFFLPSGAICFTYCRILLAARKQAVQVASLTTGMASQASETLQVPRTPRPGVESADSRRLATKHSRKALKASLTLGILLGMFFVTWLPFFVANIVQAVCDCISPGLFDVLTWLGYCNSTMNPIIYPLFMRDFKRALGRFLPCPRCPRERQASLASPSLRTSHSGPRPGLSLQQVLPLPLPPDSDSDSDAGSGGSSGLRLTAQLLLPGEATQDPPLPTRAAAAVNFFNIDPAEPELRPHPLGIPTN
Adrenergic alpha2A, sequence (P08913 whole entry): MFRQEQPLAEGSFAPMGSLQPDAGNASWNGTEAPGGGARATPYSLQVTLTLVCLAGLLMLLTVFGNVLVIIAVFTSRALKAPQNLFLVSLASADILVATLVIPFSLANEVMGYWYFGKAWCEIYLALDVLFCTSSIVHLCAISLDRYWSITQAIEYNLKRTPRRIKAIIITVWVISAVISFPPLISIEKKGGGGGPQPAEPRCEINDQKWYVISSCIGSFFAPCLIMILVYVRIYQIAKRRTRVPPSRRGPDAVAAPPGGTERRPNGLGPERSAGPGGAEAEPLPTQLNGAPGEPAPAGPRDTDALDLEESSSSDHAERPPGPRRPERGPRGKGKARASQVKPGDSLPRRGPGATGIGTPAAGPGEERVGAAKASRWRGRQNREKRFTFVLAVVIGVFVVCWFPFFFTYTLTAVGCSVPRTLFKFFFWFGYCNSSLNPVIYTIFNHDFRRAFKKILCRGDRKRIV

## Cc1ccc2c(c1)Oc1sc(C3CC3)cc1C(N1CCN(CC(C)(C)C(=O)O)CC1)=N2 [Example 2, 3-[4-(2-Cyclopropyl-8-methyl-thieno[2,3-b][1,5]benzoxazepin-4-yl)piperazin-1-yl]-2,2-dimethyl-propanoic acid dihydrochloride]
5-HT6
  Ki: > 5830 nM
Adrenergic alpha2B
  Ki: 1060 nM
Dopamine D3
  Ki: > 6280 nM
hERG Channel
  hERG Channel (μM): 53% inhibition
[1]
  Ki: 10.2 nM
Dopamine D2
  Ki: 2320 nM
Adrenergic alpha2A
  Ki: 5920 nM
